Tests used:
cultured epidermal cells = details: 5 mmol/L; independently from cell proliferation; cited from earlier work
[1] = tested on: Normal human epidermal cells; assay: Test Example 2: hyaluronic acid production promotion in normal human epidermal cells; assay type: cell-based; details: 48-hour culture, FIG. 3
Text: Normal human epidermal cells (manufactured by Kurabo Industries Ltd.) were inoculated into 24-well plates and cultured in a culture medium for proliferation to the confluent density, and then 2-acetamido-1,3,4,6-tetra-O-acetyl-2-deoxy-β-D-glucopyranoside represented by formula (17) to a final concentration of 100 μmol/L, N-acetylglucosamine derivative obtained in Production Example 9 at a final concentration of 1 mmol/L, and N-acetylglucosamine derivatives obtained in Production Examples 10 to 12 at a final concentration of 100 mmol/L were added. After 48-hour culture from the addition, the amount of hyaluronic acid released into the culture medium was measured. The measurement of the hyaluronic acid was carried out by using a commercially available hyaluronic acid measurement kit (manufactured by Chugai Pharmaceutical Co., Ltd.).

[2] = 100 mmol/L (so in the source), 1/10 concentration of N-acetylglucosamine

Row | SMILES | hyaluronic acid production-promoting effect compared with N-acetylglucosamine [1, 2] [times] | further results
1 | CC(=O)N[C@H]1C(O)O[C@H](CO)[C@@H](O)[C@@H]1O (stereo partly drawn) [N-acetylglucosamine] |  | promotion of hyaluronic acid production (cultured epidermal cells): about 1.5 times
2 | CCOC1OC(COC(C)=O)C(OC(C)=O)C(OC(C)=O)C1NC(C)=O [Production Example 9, ethyl(2-acetamido-3,4,6-tri-O-acetyl-2-deoxy)β-D-glucopyranoside] |  | hyaluronic acid production-promoting effect compared with N-acetylglucosamine ([1]; 1 mmol/L (same concentration as N-acetylglucosamine)): 6.5 times
3 | CCCCCOC1OC(COC(C)=O)C(OC(C)=O)C(OC(C)=O)C1NC(C)=O [Production Example 10, pentyl(2-acetamido-3,4,6-tri-O-acetyl-2-deoxy)β-D-glucopyranoside] | 3.8 | 
4 | CCCCCCCCOC1OC(COC(C)=O)C(OC(C)=O)C(OC(C)=O)C1NC(C)=O [Production Example 11, octyl(2-acetamido-3,4,6-tri-O-acetyl-2-deoxy)β-D-glucopyranoside] | 2.8 | 
5 | CC(=O)NC1C(OC/C=C(\C)CCC=C(C)C)OC(COC(C)=O)C(OC(C)=O)C1OC(C)=O [Production Example 12, geranyl(2-acetamido-3,4,6-tri-O-acetyl-2-deoxy)β-D-glucopyranoside] | 3.7 | 
6 | CC(=O)NC1C(OC(C)=O)OC(COC(C)=O)C(OC(C)=O)C1OC(C)=O [formula (17), 2-acetamido-1,3,4,6-tetra-O-acetyl-2-deoxy-β-D-glucopyranoside] |  | hyaluronic acid production-promoting effect compared with N-acetylglucosamine ([1]; 100 μmol/L (1/10 concentration of N-acetylglucosamine)): 3.0 times

— patent publication US7393937B2, “N-acetylglucosamine derivatives and use thereof” (Kao Corporation, priority 2002, dated 2008)
